Measurements taken from PubChem BioAssay (NCI).
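48-hour exposure; five concentrations; linearly interpolated endpoints. GI50: concentration for 50% inhibition of growth. TGI: total growth inhibition.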

Key:
Assay in all cases: DTP human tumour cell line panel, 48 h
HCT-15 colon = test system: HCT-15 colon
PC-3 prostate = test system: PC-3 prostate
786-0 renal = test system: 786-0 renal
SK-MEL-2 melanoma = test system: SK-MEL-2 melanoma
MOLT-4 leukemia = test system: MOLT-4 leukemia
SF-268 CNS = test system: SF-268 CNS
CAKI-1 renal = test system: CAKI-1 renal
ACHN renal = test system: ACHN renal
M14 melanoma = test system: M14 melanoma
SW-620 colon = test system: SW-620 colon

Compound	GI50 (HCT-15 colon) [µM]	TGI (HCT-15 colon) [µM]	GI50 (PC-3 prostate) [µM]	TGI (PC-3 prostate) [µM]	GI50 (786-0 renal) [µM]	TGI (786-0 renal) [µM]	GI50 (SK-MEL-2 melanoma) [µM]	TGI (SK-MEL-2 melanoma) [µM]	GI50 (MOLT-4 leukemia) [µM]	TGI (MOLT-4 leukemia) [µM]	GI50 (SF-268 CNS) [µM]	TGI (SF-268 CNS) [µM]	GI50 (CAKI-1 renal) [µM]	TGI (CAKI-1 renal) [µM]	GI50 (ACHN renal) [µM]	TGI (ACHN renal) [µM]	GI50 (M14 melanoma) [µM]	TGI (M14 melanoma) [µM]	GI50 (SW-620 colon) [µM]	TGI (SW-620 colon) [µM]
Fc1ccc(-c2ncn(C3CCNCC3)c2-c2ccnc(Oc3ccc(F)c(F)c3)n2)cc1	5.64	15.6	9.05	> 19.9	8.97	> 16.2	6.84	14.5	8.34	> 19.1	12	> 25	10.6	> 20.6	9.9	> 25	4.8	8.97	4.36	8.98
O=C(O)CCC/C=C\C[C@H]1C=CC(=O)/C1=C/C[C@@H](O)CCc1cccc(C(F)(F)F)c1	1.79	4.88	3.12	10.3	2.95	6.61	2.65	7.98	2.21	7.34	3.22	16.5	3.92	14.7	1.65	3.22	2	6.76	3.1	10.1
CC(=O)N1c2ccccc2NC2=C(C(=O)N(Cc3ccccc3)C2(C)C)C1c1ccco1 (stereo not given)	1.2	> 25	0.687	> 25	1.26	> 23.1	1.03	> 25	0.786	> 25	1.28	> 25	3.41	> 25	1.35	> 25	0.748	5.31	0.58	> 25
